# Where a name gives a salt, the structure may show the parent alone.
# Experiment: solubility of the drug
# Type: physicochemical
compound,measurement,value
Fc1ccc([C@@H]2CCNC[C@H]2COc2ccc3c(c2)OCO3)cc1 [Paroxetine hydrochloride],solubility,5400 µg/mL

# From patent US20070298106A1, “Sustained Release Formulation Containing Selective Serotonin Reuptake Inhibitor and Method for the Preparation Thereof” (Amorepacific Corporation, priority 2004, published 2007)
